Assay results: patent EP0393786B1, “New retro-inverse, one- or more bond bearing analogues of thymopentin, a method for synthesizing the same and their employment for the preparation of pharmaceutical” (SCLAVO S.p.A., priority 1989, dated 1990)

Assays:
[1] = test system: lymphocytes which secrete antibodies (PFC); assay: Hemolysis plate test (PFC) according to Jerne and Nordin, in vivo immunostimulating activity; set-up: species or system inbred C3H/HeNCrlBr male mice; settings: 100 ng of peptide p.o. two hours after SRBC i.v.; spleen lymphocytes after four days; IgM PFC
Experimental: In particular, the so-called "hemolysis plate test" has been employed (PFC) performed according to the procedure disclosed by Jerne and Nordin.
Said test is carried out by administering through intravenous route to inbred C3H/HeNCrlBr male mice (Calco-Italia) aged 10-12 weeks and of body weight about 25 g, a pyrogen-free saline solution (0.2 ml) containing 1-2 x 10⁸ blood red cells of ram (SRBC). After two hours, groups of three mice each are treated p.o. (intragastric intubation) with 0.2 ml of saline solution (control) or with 0.2 ml of saline solution containing 100 ng of the peptide under test. After four days, the mice are sacrificed and the spleens are drawn and mechanically disrupted to separate the lymphocytes. The lymphocytes so isolated are washed with minimal soil containing Earle salts (MEM) (3 x 15 ml) and then resuspended into the same soil (1 ml) at a final concentration of 150,000 cells. Each cell suspension (0.1 ml) is then diluted 1/100 with MEM soil, and 100 µl of each dilution is added in double to wells of microplates containing 25 µl of MEM soil, 25 µl of a 10 % solution of SRBC antigens and 25 µl of guinea-pig complement at a final dilution of 1/64. The whole suspension is immediately transferred by capillarity from each well onto overlapped glass holder-slides. Such slides, with their edges sealed by means of paraffin, are then put for incubation into a thermostatic chamber at 37°C for one hour.
At the end of such time, the direct hemolysis plates are counted by means of a light-contrast viewer, such plates pointing out the number of lymphocytes which secrete antibodies (PFC). The antibodies so put into evidence are of the class of the IgM's, which are proper of the primary antibody response.

[2] = Stability to enzymic hydrolysis in heparinized human plasma (half-life); settings: for half-life, times as much as that of thymopentin: relative to thymopentin
Experimental: The incubations were carried out at 37°C, and the drawings of the plasmatic mixtures, each one of 100 µl, were stopped at the various times by addition of trifluoroacetic acid in the ratio of 10%, with successive centrifugation at 10,000 x g, for five minutes. A portion of the supernatant is subjected to chromatography under conditions suitable to put into evidence the change in concentration of the peptide tested at the various time.

Row | half-life ([2]; human) | half-life, times as much as that of thymopentin [2] | half-life ([2]; test parallel to thymopentin) | Molecule | Plate formation % control [1]
1 | – | – | – | H-Arg-Lys-Asp-Val-Tyr-OH [TP5, reference compound] | 137 % control
2 | 22 min | – | – | CC(C)[C@H](NC(=O)[C@H](CC(=O)O)NC(=O)C(CCCCN)C(=O)NC(N)CCCNC(=N)N)C(=O)N[C@@H](Cc1ccc(O)cc1)C(=O)O (some centres unmarked) [reference compound] | –
3 | 2.5 min | about 2 times | – | CC(C)[C@@H](NC(=O)C(Cc1ccc(O)cc1)C(=O)O)NC(=O)[C@H](CC(=O)O)NC(=O)[C@H](CCCCN)NC(=O)[C@@H](N)CCCNC(=N)N (stereo partly drawn) [Example 3, [gVal⁴,(R,S)mTyr⁵]TP5] | 190 % control
4 | > 360 min | – | > 360 min | CC(C)[C@@H](NC(=O)C(Cc1ccc(O)cc1)C(=O)O)NC(=O)[C@H](CC(=O)O)NC(=O)C(CCCCN)C(=O)N[C@@H](N)CCCNC(=N)N (stereo partly drawn) [Example 1, CH₃COOH.H-g-Arg-(R,S)mLys-Asp-gVal-(R,S)mTyr-OH] | 196 % control
5 | 10 min | about 7 times | – | CC(C)C(C(=O)N[C@H](CC(=O)O)NC(=O)[C@H](CCCCN)NC(=O)[C@@H](N)CCCNC(=N)N)C(=O)N[C@@H](Cc1ccc(O)cc1)C(=O)O (stereo partly drawn) [Example 2, CH₃COOH.H-Arg-Lys-gAsp-(R,S)mVal-Tyr-OH] | 132 % control
